Experimental data taken from paper PMC11494886, “Discovery and design of molecular glue enhancers of CDK12–DDB1 interactions for targeted degradation of cyclin K” (RSC Chemical Biology, 2024).

Key:
Assay type in all cases: binding
Cdk12/CycK and DDB1ΔB [1] = target: T1, Cdk12/CycK and DDB1ΔB (Homo sapiens, UniProt Q16531+Q9NYV4, DEL396-705); test: Dynamic light scattering of SEC peak fractions; conditions: SEC peak middle fractions, vs negative controls
T1 construct: the Cdk12 (714–1063)/CycK (1–267) complex and the DDB1ΔB protein; made in house; host or cells: Sf9 insect cells (MultiBacTurbo)
Procedure: To evaluate particle size distribution in liquid solution, dynamic light scattering was employed. Specifically, 10 μL fractions from the central region of peaks obtained in analytical size exclusion chromatography runs were analyzed. This analysis was performed using a DynaPro NanoStar 672 (Wyatt Technology) in a disposable DLS MicroCuvette (Wyatt Technology), while maintaining a constant temperature of 25 °C. Each measurement was conducted with an acquisition time of 3 s, and each data point depicted in the Results section represents the average of 20 individual DLS measurements. The hydrodynamic radius of the protein samples was determined using the processing and analysis software DYNAMICS.

Cdk12/CycK and DDB1ΔB [2] = target: T1, Cdk12/CycK and DDB1ΔB; test: Analytical size-exclusion chromatography of DDB1ΔB and Cdk12/CycK; conditions: 20 μM proteins, 60 μM compound, vs DMSO and THZ531
Procedure: Analytical size-exclusion chromatography was employed to investigate compound-induced protein–protein interactions between the heterodimeric Cdk12 (714–1063)/CycK (1–267) complex and the RING E3 ligase-associated adaptor protein DDB1ΔB. The analysis was conducted on an Agilent 1260 Infinity II HPLC system (Agilent Technologies), coupled with a Superdex 200 Increase 3.2/300 column (Cytiva), pre-equilibrated in Cdk12 SEC buffer (20 mM Hepes pH 7.8, 400 mM NaCl, 1 mM TCEP) supplemented with 1 g L^−1 carboxymethyl-dextran. Purified proteins, combined in equimolar ratios (20 μM Cdk12/CycK and DDB1ΔB, respectively) were supplemented with 3-fold molar excess of small molecular compounds. The resulting protein mixtures were diluted to a final volume of 25 μL using the kinases SEC-buffer ensuring a final DMSO concentration of 2%, followed by an incubation period of 10 min. Upon injection into the analytical system, the chromatography was conducted at a controlled flow rate of 0.05 mL min^−1, with protein absorbance monitored at 280 nm wavelength. Peak fractions were collected drop by drop and subsequently subjected to analysis via dynamic light scattering (DLS) to assess their size distribution, along with SDS-PAGE analysis to determine the composition of the protein complex.

CDK12/cyclin K + DDB1 = target: T2, CDK12/cyclin K + DDB1 (Homo sapiens, UniProt Q16531+Q9NYV4, DEL396-705); test: Microscale thermophoresis, ternary complex formation; conditions: MST, labeled DDB1ΔBPB + CDK12/cyclin K
T2 construct: The kinase domain of human CDK12 (Uniprot: Q9NYV4; a.a; 715–1050); GST (N, cleaved yes); made in house; host or cells: Spodoptera frugiperda SF9 insect cells (Bac-to-Bac); CDK12/cyclin K co-infected with S. cerevisiae CAK1
Procedure: Finally, the capacity of small molecules to induce a ternary complex between CDK12/cyclin K and DDB1 in vitro was assessed by microscale thermophoresis (MST). Labeled DDB1ΔBPB was combined with purified CDK12/cyclin K, and fluorescence intensity was monitored with increasing compound concentrations.
Cell pellets were harvested 48 hours post infection via centrifugation and lysed in buffer A (50 mM Tris–HCl (pH 8.0), 200 mM NaCl, 10 mM imidazole, 0.5 mM tris(2-carboxyethyl) phosphine (TCEP)) supplemented with EDTA-free Pierce™ protease inhibitor tablet (Thermo Fisher Scientific). […] The concentrated protein at 2 mg mL^−1 was flash-frozen in liquid nitrogen and stored at −80 °C.
Full-length S. cerevisiae CAK1 (Uniprot: P43568) with an N-terminal His6 tag was subcloned into pFastBac 1 vector. […] The eluted CDK12/cyclin K complex was concentrated to 2 mg mL^−1, flash-frozen in liquid nitrogen and stored at −80 °C.
A protocol to assess ternary binding of molecular glues with CDK12/cycK and DDB1 by MST was established using published procedures for PROTAC interaction with bromodomains and E3 ubiquitin ligases.[38] His8-DDB1-ΔBPB was labeled with the MO-L018 Monolith™ His-tag Labeling Kit RED-tris-NTA 2nd Generation (NanoTemper Technologies) following the instruction manual. 100 nM dye was mixed with 200 nM DDB1 in 50 mM HEPES pH 7.5, 150 mM NaCl, 5% glycerol, 0.05% Tween, and incubated at room temperature for 30 min. […] MST traces were recorded using standard parameters: 5 s MST power off, 30 s MST power on and 5 s MST power off. Measurements were taken at −1 to 0 s (cold region) and 9–10 s (hot region). Data were analyzed using a fitting function derived from the law of mass action:1 [drawing 6] where f(c) is the fluorescence signal (Fnorm) at a given ligand concentration (c), B is Fnorm of fully liganded DDB1 at high ligand concentrations, U is Fnorm of DDB1 alone at low ligand concentrations, Kd is the dissociation constant or binding affinity, cT is the final concentration of DDB1 in the assay (Fig. 3G). For normalization, the data were first transformed using eqn (2) where y is the fraction bound, followed by fitting to eqn (3) (Fig. 5B–E).2 [drawing 7] 3 [drawing 8]

T1 sequence (Q9NYV4 714-1063, stated change not applied): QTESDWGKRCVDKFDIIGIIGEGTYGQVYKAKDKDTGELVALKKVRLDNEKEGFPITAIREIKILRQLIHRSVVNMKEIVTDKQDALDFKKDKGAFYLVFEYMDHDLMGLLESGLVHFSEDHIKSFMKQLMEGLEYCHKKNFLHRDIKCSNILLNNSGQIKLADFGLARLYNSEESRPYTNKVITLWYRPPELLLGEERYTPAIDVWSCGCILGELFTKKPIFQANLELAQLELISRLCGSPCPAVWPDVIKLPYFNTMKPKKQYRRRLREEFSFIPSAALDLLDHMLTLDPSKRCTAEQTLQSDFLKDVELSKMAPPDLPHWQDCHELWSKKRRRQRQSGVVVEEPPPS
T1 sequence (O75909 1-267 partner limits assumed): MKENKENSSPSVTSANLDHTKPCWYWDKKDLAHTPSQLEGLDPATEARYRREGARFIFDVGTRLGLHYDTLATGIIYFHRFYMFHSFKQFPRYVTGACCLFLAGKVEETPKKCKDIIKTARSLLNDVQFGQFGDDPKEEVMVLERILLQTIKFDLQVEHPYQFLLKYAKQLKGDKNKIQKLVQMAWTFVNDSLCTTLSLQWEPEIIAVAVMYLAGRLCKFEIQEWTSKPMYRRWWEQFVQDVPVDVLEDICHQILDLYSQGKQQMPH
T1 sequence (Q16531 with tags, fused parts or gaps DEL396-705): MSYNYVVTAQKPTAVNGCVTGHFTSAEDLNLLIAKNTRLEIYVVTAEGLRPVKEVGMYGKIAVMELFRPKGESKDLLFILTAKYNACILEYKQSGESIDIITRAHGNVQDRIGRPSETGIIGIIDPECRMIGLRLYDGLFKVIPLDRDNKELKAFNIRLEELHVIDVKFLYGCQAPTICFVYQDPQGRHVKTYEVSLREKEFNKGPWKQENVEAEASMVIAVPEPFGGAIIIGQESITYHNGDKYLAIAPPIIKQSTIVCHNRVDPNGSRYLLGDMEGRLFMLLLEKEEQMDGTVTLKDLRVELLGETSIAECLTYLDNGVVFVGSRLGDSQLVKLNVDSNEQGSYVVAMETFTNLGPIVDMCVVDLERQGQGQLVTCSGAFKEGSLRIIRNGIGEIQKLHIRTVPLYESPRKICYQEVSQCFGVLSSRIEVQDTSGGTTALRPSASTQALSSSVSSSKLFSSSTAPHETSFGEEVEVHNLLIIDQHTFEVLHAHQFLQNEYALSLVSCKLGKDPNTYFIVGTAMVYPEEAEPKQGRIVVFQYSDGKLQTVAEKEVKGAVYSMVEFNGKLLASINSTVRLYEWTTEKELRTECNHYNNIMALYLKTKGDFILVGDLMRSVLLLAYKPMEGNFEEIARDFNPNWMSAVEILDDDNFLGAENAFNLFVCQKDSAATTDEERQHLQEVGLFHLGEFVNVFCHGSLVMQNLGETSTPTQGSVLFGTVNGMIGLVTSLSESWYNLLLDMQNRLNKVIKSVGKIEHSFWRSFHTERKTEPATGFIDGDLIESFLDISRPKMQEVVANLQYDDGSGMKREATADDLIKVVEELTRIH
T2 sequence (Q16531 with tags, fused parts or gaps DEL396-705): as above
T2 sequence (Q9NYV4 715-1050, stated change not applied): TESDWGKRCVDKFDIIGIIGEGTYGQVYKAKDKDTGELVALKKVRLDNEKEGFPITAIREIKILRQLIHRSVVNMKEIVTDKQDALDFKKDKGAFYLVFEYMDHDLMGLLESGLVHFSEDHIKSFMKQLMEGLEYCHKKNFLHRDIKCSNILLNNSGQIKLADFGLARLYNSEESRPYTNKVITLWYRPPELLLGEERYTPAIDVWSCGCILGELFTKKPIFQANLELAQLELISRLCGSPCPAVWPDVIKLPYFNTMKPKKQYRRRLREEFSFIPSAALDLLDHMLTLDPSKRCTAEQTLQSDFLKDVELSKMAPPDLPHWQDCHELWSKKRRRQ
T2 sequence (O75909 11-267 partner limits assumed): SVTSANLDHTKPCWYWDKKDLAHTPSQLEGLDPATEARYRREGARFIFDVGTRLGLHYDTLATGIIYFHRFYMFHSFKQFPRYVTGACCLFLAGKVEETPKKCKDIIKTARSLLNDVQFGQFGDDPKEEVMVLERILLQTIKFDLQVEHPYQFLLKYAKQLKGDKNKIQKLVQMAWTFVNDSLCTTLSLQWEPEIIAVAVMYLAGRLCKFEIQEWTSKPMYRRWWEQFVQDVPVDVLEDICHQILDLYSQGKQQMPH

SMILES	hydrodynamic radius (DLS) (Cdk12/CycK and DDB1ΔB [1])	retention time in analytical SEC (ternary complex formation) (Cdk12/CycK and DDB1ΔB [2])	ability to induce ternary complex (CDK12/cyclin K + DDB1)
Cn1cc(-n2cnc3c(NCc4nc5cc(Cl)c(Cl)cc5[nH]4)nc(N4CCOCC4)nc32)cn1 [SR-4835]	significantly increased	reduced retention times	
CN(C)C/C=C/C(=O)Nc1ccc(C(=O)N2CCC[C@@H](Nc3ncc(Cl)c(-c4c[nH]c5ccccc45)n3)C2)cc1 [THZ531, reference compound]			inability to induce such a complex
